Each structure is given as a SMILES string. Where two headings read alike, the source gives them in different places.

The text below walks through data of US8765716B2, “Pharmaceutical composition containing docetaxel-cyclodextrin inclusion complex and its preparing process” (Meridian Laboratories, Inc., priority 2006, dated 2014).

Data set [1] has as its system advanced breast carcinoma. Conditions: treatment of advanced breast carcinoma; cited from earlier work.
A short description of data set [2]: Inclusion solubilization test. It is filed as physicochemical. Conditions: thermodynamic from solid, docetaxel solubility in pure water, 25° C. As to the method:
Standard curve: 0.67 mg/ml docetaxel solution was prepared by dissolving docetaxel with ethanol, and diluted with pure water into […]˜20.1 μg/ml series solutions, then UV absorption value A was measured under 228 nm. A standard curve was plotted by A against concentration C (mg/ml) (A=13.881C+0.3577 (r=0.9998)).
The excessive docetaxel or inclusion in the pure water was oscillated for 72 h at 25° C.±1° C., filtered and placed still.

A short description of data set [3]: Solid inclusion stability, 5-day acceleration test (light, high temperature, high humidity), HPLC content. It is filed as physicochemical. As to the method: (§1) HPLC chromatographic conditions: chromatographic column ODS Cig (250 mm×4.6 mm); mobile phase: water:acetonitrile (53:47); flow rate: 1.0 ml/min; detection wavelength: 230 nm; detection time: 30.00 min; detection sensitivity: 1.0000AUFS.
Samples: docetaxel material; docetaxel/sulfobutyl-β-cyclodextrin inclusion (a, mass ratio of 1:17); docetaxel/hydroxypropyl-sulfobutyl-β-cyclodextrin inclusion (b, mass ratio of 1:17). Docetaxel materials and inclusions were divided into three portions of test samples equally and were subject to light, high temperature and high humidity acceleration tests respectively:
Samples were put in a sealed transparent container and then placed in an illumination box equipped with fluorescent light of 4500±500LX illumination intensity for 5 days. Sampling inspection analysis was conducted, and the test results were compared with the samples of 0 day.
Samples were placed in a clean sealed container at a temperature of 60° C. for 5 days. Sampling inspection analysis was conducted, and the test results were compared with the samples of 0 day.
Samples were placed in a sealed container of constant humidity at temperature of 25° C. and relative humidity of 90±5% for 5 days. Sampling inspection analysis was conducted, and the test results were compared with the samples of 0 day.

For data set [4] the following is noted: cited from earlier work.
Data set [5] is described as follows: Docetaxel stability test in solution (HPLC assay). The class given is physicochemical. The following applies: normal saline solution. As to the method: as §1
Under the aforesaid HPLC chromatographic conditions, some docetaxel raw materials; docetaxel/sulfobuty-β-cyclodextrin inclusion (a) with a mass ratio of 1:17 and docetaxel/hydroxypropy-sulfobuty-β-cyclodextrin inclusion (b) with a mass ratio of 1:17 were taken and dissolved with normal saline solution, diluted for 100 times after 30 min ultrasonic wave treatment, placed still, […]

In data set [6] the test system is tubulin. Conditions: versus paclitaxel; cited from earlier work.

Consider `CC(=O)O[C@@]12CO[C@@H]1C[C@H](O)[C@@]1(C)C(=O)[C@H](O)C3=C(C)[C@@H](OC(=O)[C@H](O)[C@@H](NC(=O)OC(C)(C)C)c4ccccc4)C[C@@](O)([C@@H](OC(=O)c4ccccc4)[C@H]21)C3(C)C` (relative stereo) [Docetaxel, [2aR-(2aα,4β,4aβ,6β,9α,(αR*,βS*),11α,12α,12aβ,12bα)]-β-[[(1,1-dimethylethoxy)carbonyl]amino]-α-hydroxyphenyl propionic acid [12b-acetoxy-12-benzoyloxy-2a,3,4,4a,5,6,9,10,11,12,12a,12b-dodecahydro-4,6,11-trihydroxyl-4-a,8,13,13-tetramethyl-5-oxo-7,11-methylene-1H-pentacyclo-ene[3,4]benzo[1,2-b]tetraoxacyclo-9-base]acetate trihydrate], for which the effective ratio in data set [1] is reported as 49%. The compound further displayed a solubility at 72 h in data set [2] of 2.9 µg/mL. In data set [3] (0 day), the “Content (%) 0 day” value is listed as 99.675%. For the same compound, in data set [3] (25° C., relative humidity 90±5%, 5 days), the “Content (%) Hight humitdity” value is on record as 83.877%. In data set [3] (60° C., 5 days), the “Content (%) High temperature” value is given as 87.859%. In addition, in data set [3] (4500±500LX, 5 days), the “Content (%) Light” value is 90.176%. For the same compound, in data set [4] (after injection), the “incidence rate of moderate and severe hypersusceptibility” value is 25.9%. The “incidence rate of moderate hypersusceptibility or more” value in data set [4] (dosage 75 mg/m^2) was 31%; in data set [4] (dosage 100 mg/m^2), 41.3%. Further, the injection-part reaction rate entry in data set [4] (in vivo) is reported as “up to 13.3%”. Besides, the “Content (%) 0 h” value in data set [5] (diluted 100 times, 0 h) is reported as 99.675%. For the same compound, in data set [5] (diluted 100 times, 5 h), the “Content (%) 5 h” value was found to be 99.025%. In addition, in data set [5] (diluted 100 times, 10 h), the “Content (%) 10 h” value amounted to 97.381%. Moreover, in data set [5] (diluted 100 times, 24 h), the “Content (%) 24 h” value was determined as 93.433%. Besides, in data set [5] (diluted 100 times, 96 h), the “Content (%) 96 h” value was 86.384%. Besides, the half-life in data set [5] (in solution, read-out: half-life of sample decomposition in solution (converted)) was 15.1 days. Also, the “inhibitory activity of tubulin depolymerization relative to paclitaxel” value in data set [6] is reported as “about 2 times”.
